Data published in patent US20260115162A1, “COMPOSITION OR ASSOCIATION OF COMPOUNDS PREFERABLY FOR USE IN THE TREATMENT OF NERVOUS DISEASES IN PARTICULAR NEURODEGENERATIVE DISEASES, METHOD FOR THE PREPARATION OF SUCH COMPOSITION OR ASSOCIATION OF COMPOUNDS AND USES THEREOF” (PHARMACEUTICA SAN MARCO S.R.L., priority 2022, published 2026).
Where two headings read alike, the source gives them in different places.

What was measured:
[1] = Pharmacokinetics of βBA and AKBA via os in healthy volunteers, fasted and hyperlipidic meal (Sterk V et al. 2004); type: in vivo, humans
Description: Indeed, βBA has a concentration in the blood: • at least 6 times higher than AKBA both in the fasting condition and with a hyperlipidic meal; • increased by 6 times after hyperlipidic meal so that the plasma/os ratio passes from 0.09 to 0.55.

[2] = Plasma and brain levels of βBA and AKBA via os in mice (Gerbeth K et al. 2013); type: in vivo
Description: βBA appears not to undergo blood-brain barrier. According to the data of Gerbeth K et al. 2013, brain levels of AKBA were very low, resulting 0.4 per AKBA in the brain/plasma ratio (but 0.81 according to Weber C C et al. 2006). In contrast, the § BA concentration in the brain was even higher than that found in the blood with 32% increase (See Table 1).

mice treated with Aβ icv = experiment: Splash test in SHAM mice and mice treated with Aβ icv (FIG. 4); type: in vivo; settings: after 7 days, HA4 200 μg, βCP 50 μg, βBA 100 μg, FE 50 μg sublingually
Experimental: (§1) The Aβ1-42, obtained from Tocris (Bristol, UK), was dissolved in sterile double-distilled pyrogenic-free water, as vehicle, to obtain a final concentration 4 μM [Colaianna M et al. 2010]. Mice were anesthetized with a solution (0.85 in ml/kg, i.p.), containing ketamine (Sigma Aldrich, Milan, Italy, 100 mg/10 ml), xylazine (Sigma Aldrich, Milan, Italy, 100 mg/10 ml) and acepromazine (prequillant, ATI Azienda Terapeutica Veterinaria Srl, 10 mg/10 ml) dissolved in saline solution. […] At the time of dissection, the correct needle track was assessed. […]
Ten μl of the solution (or vehicle alone) were administered sublingually to mice. Brain βCP, FE e βBA were quantified in a separate subset of mice at 5, 15 and 30 min after their administration.
All behavioral experiments were conducted at 5 or 30 min after sublingual administrations of βBA or vehicle in mice treated with SHAM or AP. Based on the observed behavioral results, neurochemical and biochemical quantifications were performed 30 min after administration of βCP, FE, and βBA or vehicle in SHAM- or Aβ-treated mice.
Splash test. […] The test was videotaped and later an observer, blind to the trial, scored for latency to the first grooming event and duration of self-care behavior during the period of the test (5 min).

NF-kB = NF-kB in PFC and HIPP of mice treated with Aβ icv, Western blotting (FIG. 10); type: in vivo; settings: after 7 days
Experimental: as §1
(§2) The total amount of proteins was measured in homogenates by using Pierce BCA Assay (Thermo Fisher Scientific, Cleveland, OH, USA). […] After HRP-conjugated specific antibody incubation, ECL reagent (Bio-Rad Laboratories Inc., Segrate (MI), Italy) was added to the immune complex and chemiluminescence was detected by ChemiDoc MP system (Bio-Rad Laboratories Inc., Segrate (MI), Italy). Optical densities of the bands were measured using Image J software (http://rsb.info.nih.gov/ij/ accessed on 15 Mar. 2021) and normalized against bands relative to -actin (1:5,000, Abcam, Cambridge, UK).

synaptophysin = experiment: Synaptophysin in PFC and HIPP of mice treated with Aβ icv, Western blotting (FIG. 11); type: in vivo; settings: after 7 days
Experimental: (§3) The βCP, FE, βBA and HA4 influence on prefrontal and hippocampal synaptic plasticity was evaluated using anti-PSD-95, anti-synaptophysin, anti-CaMKII antibodies.
as §1, §2

PSD-95 = PSD-95 in PFC and HIPP of mice treated with Aβ icv, Western blotting (FIG. 12); type: in vivo; settings: after 7 days
Experimental: as §3, §1, §2

catG (cathepsin G) = target: T1, catG (cathepsin G) (Homo sapiens, UniProt P08311); settings: in vitro; read-out: IC50 catG (cathepsin G) inhibition; cited from earlier work
T1 sequence (P08311 21-244): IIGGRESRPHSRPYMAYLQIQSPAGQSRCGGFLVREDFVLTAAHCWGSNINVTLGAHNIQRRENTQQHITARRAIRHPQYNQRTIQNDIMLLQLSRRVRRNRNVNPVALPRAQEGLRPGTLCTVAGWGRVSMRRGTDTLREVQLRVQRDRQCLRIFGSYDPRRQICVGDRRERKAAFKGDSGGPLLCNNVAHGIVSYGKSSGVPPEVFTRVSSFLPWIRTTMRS

[3] = healthy volunteers, via os, cited from earlier work
[4] = patients, via os; cited from earlier work

In the case of C[C@H]1[C@H](C)CC[C@]2(C)CC[C@]3(C)C(=CC[C@@H]4[C@@]5(C)CC[C@@H](O)[C@](C)(C(=O)O)[C@@H]5CC[C@]43C)[C@H]12 [βBA, β-boswellic acid], the plasma/os ratio ([1]; after hyperlipidic meal) is reported as 0.55, the “blood concentration of βBA relative to AKBA” value ([1]; both fasting and hyperlipidic meal) is reported as “at least 6 times” and the plasma/os ratio ([1]; fasting condition) is reported as 0.09. For the same compound, the Δos/plasma ([1]; healthy volunteers, fasted conditions) was 10.9 fasted, the Δos/plasma ([1]; healthy volunteers, hyperlipidic fed conditions) was 1.82 hyperlipidic and the “increase in blood concentration / intestinal absorption induced by a hyperlipidic meal” value ([1]; healthy volunteers, hyperlipidic meal vs fasted) was 6 times. The Δos/brain [2] was 26, the Δos/plasma [2] was 39 and the Δplasma/brain [2] was 0.68. The “increase of concentration in the brain over that in the blood” value ([2]; Table 1) was 32%, the “Splash test latency time (antidepressant effect)” value (mice treated with Aβ icv) was “antidepressant effect” and the NF-kB tissue concentration (NF-kB) was “progressive removal of the pro-inflammatory effect induced by Aβ”. The synaptophysin tissue concentration (synaptophysin) was “remove Ap-induced alterations”, the PSD-95 tissue concentration (PSD-95) was “remove Aβ-induced alterations in a progressive manner” and the IC50 (catG (cathepsin G)) was 800 nM. For the same compound, the “concentration in the plasma” value ([3]; fasted conditions) was 188.2 fasted ng/g o ng/ml, the “concentration in the plasma” value ([3]; hyperlipidic fed conditions) was 1,120 hyperlipidic ng/g o ng/ml and the “concentration in the plasma” value [4] was 2,236 ng/g o ng/ml.
